Measured values taken from US20140147527A1, “COMPOSITIONS AND METHODS FOR TREATING EMOTIONAL-PSYCHOLOGICAL STRESS” (TSUKUBA UNIVERSITY, priority 2012, published 2014).

System: SH-SY5Y cells
Assay: Cell viability assay (MTT) in SH-SY5Y cells
Format: cell-based, human
Conditions: H2O2 0, 50, 100, 150, 200 or 250 μM, 24 hours
Description: To determine the concentration of C. schoenanthus ethanol extracts which can be used to investigate their anti-stress effect, SH-SY5Y cells were cultured with several concentrations (1/100, 1/1000, or 1/10000 v/v dilution of C. schoenanthus ethanol extract in culturing medium) for 72 hours.
SH-SY5Y cells were treated with different concentrations of C. schoenanthus extract (at a 1/500, 1/750, 1/1000, 1/1500, or 1/2000 v/v dilution in medium) for 72 hours and cell viability was determined by MTT assay.
To evaluate whether H2O2 influences neuronal cytotoxicity, SH-SY5Y cells were treated with various concentrations of H2O2 (0, 50, 100, 150, 200, or 250 μM) for 24 hours.
A cell survival analysis was performed using 3-(4,5-Dimethylthiazol-2-yl)-2,5-diphenyltetrazolium bromide (MTT), which was dissolved in PBS to a final concentration of 5 mg/ml. […] Then, 100 μl of 10% of sodium dodecyl sulfate (SDS) was added and after overnight incubation, the absorbance was determined at 570 nm. The control wells which contained cultured cells with medium only were considered as 100% cell viability.

Question: `OO` [H2O2] was tested. Which “cytotoxicity in SH-SY5Y cells” value did it give?
Answer: Its value is “dose-dependent cytotoxicity”.
